{
  "source": "PubChem BioAssay AID1963844",
  "about": "(Molecular Pharmacology Branch, DTP, NCI, 2024);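 note: spheroids exposed to compounds for one week before readout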;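 for viability, T/C: percent of DMSO vehicle wells luminescence so 100% = untreated viability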",
  "system": "422866-222-R5-J1-PDC complex spheroid viability",
  "test": "Anticancer human tumor 422866-222-R5-J1-PDC patient-derived pancreatic adenocarcinoma cell line growth inhibition [POLQ]",
  "settings": "for IC50: curve of first compound; for viability, T/C: stronger effect = lower value",
  "in_short": "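Growth inhibition in 3D: complex spheroids (tumor PDC, HUVEC, MSC) treated with POLQ inhibitor combinations; where Cmax unknown, highest tested concentration 10 microM, except SN-38 at 1 microM.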",
  "key": {"[1]": {"settings": "second compound 0.0316 µM, first compound 0.0316 µM"}, "[2]": {"settings": "second compound 0.0316 µM, first compound 0.1 µM"}, "[3]": {"settings": "second compound 0.0316 µM, first compound 0.316 µM"}, "[4]": {"settings": "second compound 0.0316 µM, first compound 1 µM"}, "[5]": {"settings": "second compound 0.0316 µM, first compound 3.16 µM"}, "[6]": {"settings": "second compound 0.0316 µM, first compound 10 µM"}, "[7]": {"settings": "second compound 0.1 µM, first compound 0.0316 µM"}, "[8]": {"settings": "second compound 0.1 µM, first compound 0.1 µM"}, "[9]": {"settings": "second compound 0.1 µM, first compound 0.316 µM"}, "[10]": {"settings": "second compound 0.1 µM, first compound 1 µM"}, "[11]": {"settings": "second compound 0.1 µM, first compound 3.16 µM"}, "[12]": {"settings": "second compound 0.1 µM, first compound 10 µM"}, "[13]": {"settings": "second compound 0.316 µM, first compound 0.0316 µM"}, "[14]": {"settings": "second compound 0.316 µM, first compound 0.1 µM"}, "[15]": {"settings": "second compound 0.316 µM, first compound 0.316 µM"}, "[16]": {"settings": "second compound 0.316 µM, first compound 1 µM"}, "[17]": {"settings": "second compound 0.316 µM, first compound 3.16 µM"}, "[18]": {"settings": "second compound 0.316 µM, first compound 10 µM"}, "[19]": {"settings": "second compound 1 µM, first compound 0.0316 µM"}, "[20]": {"settings": "second compound 1 µM, first compound 0.1 µM"}, "[21]": {"settings": "second compound 1 µM, first compound 0.316 µM"}, "[22]": {"settings": "second compound 1 µM, first compound 1 µM"}, "[23]": {"settings": "second compound 1 µM, first compound 3.16 µM"}, "[24]": {"settings": "second compound 1 µM, first compound 10 µM"}, "[25]": {"settings": "second compound 3.16 µM, first compound 0.0316 µM"}, "[26]": {"settings": "second compound 3.16 µM, first compound 0.1 µM"}, "[27]": {"settings": "second compound 3.16 µM, first compound 0.316 µM"}, "[28]": {"settings": "second compound 3.16 µM, first compound 1 µM"}, "[29]": {"settings": "second compound 3.16 µM, first compound 3.16 µM"}, "[30]": {"settings": "second compound 3.16 µM, first compound 10 µM"}, "[31]": {"settings": "second compound 10 µM, first compound 0.0316 µM"}, "[32]": {"settings": "second compound 10 µM, first compound 0.1 µM"}, "[33]": {"settings": "second compound 10 µM, first compound 0.316 µM"}, "[34]": {"settings": "second compound 10 µM, first compound 1 µM"}, "[35]": {"settings": "second compound 10 µM, first compound 3.16 µM"}, "[36]": {"settings": "second compound 10 µM, first compound 10 µM"}},
  "data": [
    {"smiles": "CC1COCCN1c1cc(C2(O)CC3CCC(C2)O3)c2cnn(-c3ccn[nH]3)c2n1", "note": "(centres undefined) + COC1C(OC(N)=O)C(O)C(Oc2ccc3c(O)c(NC(=O)c4ccc(O)c(CC=C(C)C)c4)c(=O)oc3c2C)OC1(C)C", "values": [
      {"measurement": "IC50", "setting": "second compound 0.0316 µM", "value": "> 10", "unit": "µM"},
      {"measurement": "IC50", "setting": "second compound 0.1 µM", "value": "> 10", "unit": "µM"},
      {"measurement": "IC50", "setting": "second compound 0.316 µM", "value": "< 0.0316", "unit": "µM"},
      {"measurement": "IC50", "setting": "second compound 1 µM", "value": "> 10", "unit": "µM"},
      {"measurement": "IC50", "setting": "second compound 3.16 µM", "value": "> 10", "unit": "µM"},
      {"measurement": "IC50", "setting": "second compound 10 µM", "value": "> 10", "unit": "µM"},
      {"measurement": "viability, T/C", "setting": "[1]", "value": 71.4, "unit": "%"},
      {"measurement": "viability, T/C", "setting": "[2]", "value": 47.9, "unit": "%"},
      {"measurement": "viability, T/C", "setting": "[3]", "value": 45.8, "unit": "%"},
      {"measurement": "viability, T/C", "setting": "[4]", "value": 83.7, "unit": "%"},
      {"measurement": "viability, T/C", "setting": "[5]", "value": 70.7, "unit": "%"},
      {"measurement": "viability, T/C", "setting": "[6]", "value": 79.8, "unit": "%"},
      {"measurement": "viability, T/C", "setting": "[7]", "value": 73.5, "unit": "%"},
      {"measurement": "viability, T/C", "setting": "[8]", "value": 47, "unit": "%"},
      {"measurement": "viability, T/C", "setting": "[9]", "value": 41.9, "unit": "%"},
      {"measurement": "viability, T/C", "setting": "[10]", "value": 65.3, "unit": "%"},
      {"measurement": "viability, T/C", "setting": "[11]", "value": 76.8, "unit": "%"},
      {"measurement": "viability, T/C", "setting": "[12]", "value": 66.4, "unit": "%"},
      {"measurement": "viability, T/C", "setting": "[13]", "value": 72.9, "unit": "%"},
      {"measurement": "viability, T/C", "setting": "[14]", "value": 36.2, "unit": "%"},
      {"measurement": "viability, T/C", "setting": "[15]", "value": 37, "unit": "%"},
      {"measurement": "viability, T/C", "setting": "[16]", "value": 77.8, "unit": "%"},
      {"measurement": "viability, T/C", "setting": "[17]", "value": 71.5, "unit": "%"},
      {"measurement": "viability, T/C", "setting": "[18]", "value": 71.7, "unit": "%"},
      {"measurement": "viability, T/C", "setting": "[19]", "value": 75.6, "unit": "%"},
      {"measurement": "viability, T/C", "setting": "[20]", "value": 45.3, "unit": "%"},
      {"measurement": "viability, T/C", "setting": "[21]", "value": 47.8, "unit": "%"},
      {"measurement": "viability, T/C", "setting": "[22]", "value": 77.7, "unit": "%"},
      {"measurement": "viability, T/C", "setting": "[23]", "value": 63.4, "unit": "%"},
      {"measurement": "viability, T/C", "setting": "[24]", "value": 77.7, "unit": "%"},
      {"measurement": "viability, T/C", "setting": "[25]", "value": 84.3, "unit": "%"},
      {"measurement": "viability, T/C", "setting": "[26]", "value": 44.4, "unit": "%"},
      {"measurement": "viability, T/C", "setting": "[27]", "value": 48, "unit": "%"},
      {"measurement": "viability, T/C", "setting": "[28]", "value": 75.2, "unit": "%"},
      {"measurement": "viability, T/C", "setting": "[29]", "value": 67.5, "unit": "%"},
      {"measurement": "viability, T/C", "setting": "[30]", "value": 71.1, "unit": "%"},
      {"measurement": "viability, T/C", "setting": "[31]", "value": 79.1, "unit": "%"},
      {"measurement": "viability, T/C", "setting": "[32]", "value": 52.7, "unit": "%"},
      {"measurement": "viability, T/C", "setting": "[33]", "value": 40.7, "unit": "%"},
      {"measurement": "viability, T/C", "setting": "[34]", "value": 82.9, "unit": "%"},
      {"measurement": "viability, T/C", "setting": "[35]", "value": 75.2, "unit": "%"},
      {"measurement": "viability, T/C", "setting": "[36]", "value": 65.6, "unit": "%"}
    ]},
    {"smiles": "O=C(Nc1ccc(O)c(NS(=O)(=O)c2ccc(F)cc2)c1)c1ccc(-c2ccccc2)cc1", "note": "+ COC1C(OC(N)=O)C(O)C(Oc2ccc3c(O)c(NC(=O)c4ccc(O)c(CC=C(C)C)c4)c(=O)oc3c2C)OC1(C)C", "values": [
      {"measurement": "IC50", "setting": "second compound 0.0316 µM", "value": "> 10", "unit": "µM"},
      {"measurement": "IC50", "setting": "second compound 0.1 µM", "value": "> 10", "unit": "µM"},
      {"measurement": "IC50", "setting": "second compound 0.316 µM", "value": "> 10", "unit": "µM"},
      {"measurement": "IC50", "setting": "second compound 1 µM", "value": "> 10", "unit": "µM"},
      {"measurement": "IC50", "setting": "second compound 3.16 µM", "value": "> 10", "unit": "µM"},
      {"measurement": "IC50", "setting": "second compound 10 µM", "value": "> 10", "unit": "µM"},
      {"measurement": "viability, T/C", "setting": "[1]", "value": 99.6, "unit": "%"},
      {"measurement": "viability, T/C", "setting": "[2]", "value": 101, "unit": "%"},
      {"measurement": "viability, T/C", "setting": "[3]", "value": 77.7, "unit": "%"},
      {"measurement": "viability, T/C", "setting": "[4]", "value": 94.6, "unit": "%"},
      {"measurement": "viability, T/C", "setting": "[5]", "value": 96.1, "unit": "%"},
      {"measurement": "viability, T/C", "setting": "[6]", "value": 126, "unit": "%"},
      {"measurement": "viability, T/C", "setting": "[7]", "value": 92.2, "unit": "%"},
      {"measurement": "viability, T/C", "setting": "[8]", "value": 87.3, "unit": "%"},
      {"measurement": "viability, T/C", "setting": "[9]", "value": 83.3, "unit": "%"},
      {"measurement": "viability, T/C", "setting": "[10]", "value": 95.2, "unit": "%"},
      {"measurement": "viability, T/C", "setting": "[11]", "value": 88.8, "unit": "%"},
      {"measurement": "viability, T/C", "setting": "[12]", "value": 133, "unit": "%"},
      {"measurement": "viability, T/C", "setting": "[13]", "value": 92.4, "unit": "%"},
      {"measurement": "viability, T/C", "setting": "[14]", "value": 88, "unit": "%"},
      {"measurement": "viability, T/C", "setting": "[15]", "value": 84, "unit": "%"},
      {"measurement": "viability, T/C", "setting": "[16]", "value": 99.5, "unit": "%"},
      {"measurement": "viability, T/C", "setting": "[17]", "value": 93, "unit": "%"},
      {"measurement": "viability, T/C", "setting": "[18]", "value": 123, "unit": "%"},
      {"measurement": "viability, T/C", "setting": "[19]", "value": 106, "unit": "%"},
      {"measurement": "viability, T/C", "setting": "[20]", "value": 95, "unit": "%"},
      {"measurement": "viability, T/C", "setting": "[21]", "value": 83.7, "unit": "%"},
      {"measurement": "viability, T/C", "setting": "[22]", "value": 84.9, "unit": "%"},
      {"measurement": "viability, T/C", "setting": "[23]", "value": 97.7, "unit": "%"},
      {"measurement": "viability, T/C", "setting": "[24]", "value": 125, "unit": "%"},
      {"measurement": "viability, T/C", "setting": "[25]", "value": 93.8, "unit": "%"},
      {"measurement": "viability, T/C", "setting": "[26]", "value": 100, "unit": "%"},
      {"measurement": "viability, T/C", "setting": "[27]", "value": 103, "unit": "%"},
      {"measurement": "viability, T/C", "setting": "[28]", "value": 89.2, "unit": "%"},
      {"measurement": "viability, T/C", "setting": "[29]", "value": 103, "unit": "%"},
      {"measurement": "viability, T/C", "setting": "[30]", "value": 124, "unit": "%"},
      {"measurement": "viability, T/C", "setting": "[31]", "value": 95.8, "unit": "%"},
      {"measurement": "viability, T/C", "setting": "[32]", "value": 80.9, "unit": "%"},
      {"measurement": "viability, T/C", "setting": "[33]", "value": 87.4, "unit": "%"},
      {"measurement": "viability, T/C", "setting": "[34]", "value": 85, "unit": "%"},
      {"measurement": "viability, T/C", "setting": "[35]", "value": 96.4, "unit": "%"},
      {"measurement": "viability, T/C", "setting": "[36]", "value": 133, "unit": "%"}
    ]}
  ]
}
